Data: patent publication US9771369B2, “Compounds and methods for kinase modulation, and indications therefor” (Plexxikon Inc., priority 2014, dated 2017)

Molecular target: c-Kit kinase (Homo sapiens (Human), UniProt P10721)
Assay: c-Kit biochemical assay (AlphaScreen kinase activity)
Outline: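 IC50 values come from 8-point, 1:3 compound titrations measuring inhibition of peptide phosphorylation by c-Kit (commercial or His-tagged E. coli-expressed) over 1 h at room temperature, read by AlphaScreen PY30/streptavidin beads. Low-ATP version: 10 μM ATP, 100 nM biotin-(E4Y)3; high-ATP version: 100 μM ATP, 30 nM biotin-(E4Y)10.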

Sequence of c-Kit kinase (P10721 26-976): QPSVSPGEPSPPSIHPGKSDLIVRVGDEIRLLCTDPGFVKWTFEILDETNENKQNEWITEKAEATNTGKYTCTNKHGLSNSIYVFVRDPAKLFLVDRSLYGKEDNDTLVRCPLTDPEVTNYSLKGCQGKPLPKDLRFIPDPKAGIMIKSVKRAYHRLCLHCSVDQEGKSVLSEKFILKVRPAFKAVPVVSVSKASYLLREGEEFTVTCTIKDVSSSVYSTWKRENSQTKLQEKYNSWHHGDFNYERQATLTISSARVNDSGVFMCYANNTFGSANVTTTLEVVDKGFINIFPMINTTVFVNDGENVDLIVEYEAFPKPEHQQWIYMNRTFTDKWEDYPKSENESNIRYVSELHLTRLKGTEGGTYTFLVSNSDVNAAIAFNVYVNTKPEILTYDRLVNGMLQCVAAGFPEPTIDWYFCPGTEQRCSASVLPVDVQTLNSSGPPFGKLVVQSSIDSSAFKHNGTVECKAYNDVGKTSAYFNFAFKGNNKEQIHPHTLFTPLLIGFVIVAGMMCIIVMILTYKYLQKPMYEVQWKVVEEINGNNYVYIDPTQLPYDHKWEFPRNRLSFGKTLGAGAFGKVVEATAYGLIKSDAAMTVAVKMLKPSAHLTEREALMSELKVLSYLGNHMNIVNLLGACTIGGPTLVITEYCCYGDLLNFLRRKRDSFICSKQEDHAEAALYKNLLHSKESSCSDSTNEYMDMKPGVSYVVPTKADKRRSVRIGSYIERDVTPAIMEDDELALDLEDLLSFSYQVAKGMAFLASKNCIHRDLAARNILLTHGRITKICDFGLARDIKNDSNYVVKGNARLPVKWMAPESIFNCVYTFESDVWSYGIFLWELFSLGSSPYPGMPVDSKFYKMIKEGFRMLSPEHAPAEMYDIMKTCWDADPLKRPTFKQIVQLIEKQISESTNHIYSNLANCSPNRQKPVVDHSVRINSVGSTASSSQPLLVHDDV

Compound	IC50 [µM]
Cc1nc(C2CCN(c3ncnc4[nH]c(-c5ccc(C#N)cc5)cc34)CC2)[nH]c1-c1ccc2c(c1)OCO2 [P-3069, 4-[4-[4-[5-(1,3-benzodioxol-5-yl)-4-methyl-1H-imidazol-2-yl]-1-piperidyl]-7H-pyrrolo[2,3-d]pyrimidin-6-yl]benzonitrile]	0.0001 to 1
COc1cc(-c2cc3c(N4CCC(c5nc(C)c(-c6ccc7c(c6)OCO7)[nH]5)CC4)ncnc3[nH]2)ccn1 [P-3070, 4-[4-[5-(1,3-benzodioxol-5-yl)-4-methyl-1H-imidazol-2-yl]-1-piperidyl]-6-(2-methoxy-4-pyridyl)-7H-pyrrolo[2,3-d]pyrimidine]	0.0001 to 1
CC(=O)Nc1cccc(-c2cc3c(N4CCC(c5nc(C)c(-c6ccccc6)[nH]5)CC4)ncnc3[nH]2)c1 [P-3071, N-[3-[4-[4-(4-methyl-5-phenyl-1H-imidazol-2-yl)-1-piperidyl]-7H-pyrrolo[2,3-d]pyrimidin-6-yl]phenyl]acetamide]	0.0001 to 1
COc1ccc(-c2cc3c(N4CCC(c5nc(C)c(-c6ccccc6)[nH]5)CC4)ncnc3[nH]2)cn1 [P-3072, 6-(6-methoxy-3-pyridyl)-4-[4-(4-methyl-5-phenyl-1H-imidazol-2-yl)-1-piperidyl]-7H-pyrrolo[2,3-d]pyrimidine]	1 to 10
Cc1nn(C)cc1-c1cc2c(N3CCC(c4nc(C)c(-c5ccccc5)[nH]4)CC3)ncnc2[nH]1 [P-3073, 6-(1,3-dimethylpyrazol-4-yl)-4-[4-(4-methyl-5-phenyl-1H-imidazol-2-yl)-1-piperidyl]-7H-pyrrolo[2,3-d]pyrimidine]	0.0001 to 1
Cc1ccc(-c2cc3c(N4CCC(c5nc(C)c(-c6ccccc6)[nH]5)CC4)ncnc3[nH]2)cn1 [P-3074, 4-[4-(4-methyl-5-phenyl-1H-imidazol-2-yl)-1-piperidyl]-6-(6-methyl-3-pyridyl)-7H-pyrrolo[2,3-d]pyrimidine]	0.0001 to 1
CCOc1cc(-c2cc3c(N4CCC(c5nc(C)c(-c6ccccc6)[nH]5)CC4)ncnc3[nH]2)ccn1 [P-3075, 6-(2-ethoxy-4-pyridyl)-4-[4-(4-methyl-5-phenyl-1H-imidazol-2-yl)-1-piperidyl]-7H-pyrrolo[2,3-d]pyrimidine]	0.0001 to 1
Cc1nc(C2CCN(c3ncnc4[nH]c(-c5ccnc(N6CCOCC6)c5)cc34)CC2)[nH]c1-c1ccccc1 [P-3076, 4-[4-[4-[4-(4-methyl-5-phenyl-1H-imidazol-2-yl)-1-piperidyl]-7H-pyrrolo[2,3-d]pyrimidin-6-yl]-2-pyridyl]morpholine]	0.0001 to 1
Cc1nc(C2CCN(c3ncnc4[nH]c(-c5ccnc(N6CCC(C)CC6)c5)cc34)CC2)[nH]c1-c1ccccc1 [P-3077, 4-[4-(4-methyl-5-phenyl-1H-imidazol-2-yl)-1-piperidyl]-6-[2-(4-methyl-1-piperidyl)-4-pyridyl]-7H-pyrrolo[2,3-d]pyrimidine]	0.0001 to 1
Cc1nc(C2CCN(c3ncnc4[nH]c(-c5ccnc(OC(C)C)c5)cc34)CC2)[nH]c1-c1ccccc1 [P-3078, 6-(2-isopropoxy-4-pyridyl)-4-[4-(4-methyl-5-phenyl-1H-imidazol-2-yl)-1-piperidyl]-7H-pyrrolo[2,3-d]pyrimidine]	0.0001 to 1
Cc1nc(C2CCN(c3ncnc4[nH]c(-c5ccnc(N6CCCC6)c5)cc34)CC2)[nH]c1-c1ccccc1 [P-3079, 4-[4-(4-methyl-5-phenyl-1H-imidazol-2-yl)-1-piperidyl]-6-(2-pyrrolidin-1-yl-4-pyridyl)-7H-pyrrolo[2,3-d]pyrimidine]	0.0001 to 1
Cc1nc(C2CCN(c3ncnc4[nH]c(-c5cccc(OC(F)(F)F)c5)cc34)CC2)[nH]c1-c1ccccc1 [P-3080, 4-[4-(4-methyl-5-phenyl-1H-imidazol-2-yl)-1-piperidyl]-6-[3-(trifluoromethoxy)phenyl]-7H-pyrrolo[2,3-d]pyrimidine]	1 to 10
Cc1nc(C2CCN(c3ncnc4[nH]c(-c5cccc(F)c5)cc34)CC2)[nH]c1-c1ccccc1 [P-3081, 6-(3-fluorophenyl)-4-[4-(4-methyl-5-phenyl-1H-imidazol-2-yl)-1-piperidyl]-7H-pyrrolo[2,3-d]pyrimidine]	0.0001 to 1
Cc1nc(C2CCN(c3ncnc4[nH]c(-c5cccc(NS(C)(=O)=O)c5)cc34)CC2)[nH]c1-c1ccccc1 [P-3083, N-[3-[4-[4-(4-methyl-5-phenyl-1H-imidazol-2-yl)-1-piperidyl]-7H-pyrrolo[2,3-d]pyrimidin-6-yl]phenyl]methane sulfonamide]	0.0001 to 1
Cc1nc(C2CCN(c3ncnc4[nH]c(-c5ccc(F)cc5)cc34)CC2)[nH]c1-c1ccc2c(c1)OCCO2 [P-3084, 4-[4-[5-(2,3-dihydro-1,4-benzodioxin-6-yl)-4-methyl-1H-imidazol-2-yl]-1-piperidyl]-6-(4-fluorophenyl)-7H-pyrrolo[2,3-d]pyrimidine]	0.0001 to 1
Cc1nc(C2CCN(c3ncnc4[nH]c(-c5ccc(F)cc5)cc34)CC2)[nH]c1-c1ccc(OC(F)(F)F)cc1 [P-3085, 6-(4-fluorophenyl)-4-[4-[4-methyl-5-[4-(trifluoromethoxy)phenyl]-1H-imidazol-2-yl]-1-piperidyl]-7H-pyrrolo[2,3-d]pyrimidine]	0.0001 to 1
Cc1nc(C2CCN(c3ncnc4[nH]c(-c5ccc(C#N)cc5)cc34)CC2)[nH]c1-c1ccc(OC(F)(F)F)cc1 [P-3086, 4-[4-[4-[4-methyl-5-[4-(trifluoromethoxy)phenyl]-1H-imidazol-2-yl]-1-piperidyl]-7H-pyrrolo[2,3-d]pyrimidin-6-yl]benzonitrile]	1 to 10
COc1cc(-c2cc3c(N4CCC(c5nc(C)c(-c6ccc(OC(F)(F)F)cc6)[nH]5)CC4)ncnc3[nH]2)ccn1 [P-3087, 6-(2-methoxy-4-pyridyl)-4-[4-[4-methyl-5-[4-(trifluoromethoxy)phenyl]-1H-imidazol-2-yl]-1-piperidyl]-7H-pyrrolo[2,3-d]pyrimidine]	1 to 10
COc1cc(-c2cc3c(N4CCC(c5nc(C)c(-c6ccc(C)cc6)[nH]5)CC4)ncnc3[nH]2)ccn1 [P-3088, 6-(2-methoxy-4-pyridyl)-4-[4-[4-methyl-5-(p-tolyl)-1H-imidazol-2-yl]-1-piperidyl]-7H-pyrrolo[2,3-d]pyrimidine]	0.0001 to 1
COc1ccc(-c2[nH]c(C3(C)CCN(c4ncnc5[nH]c(-c6ccc(C#N)nc6)cc45)CC3)nc2C)cc1C [P-3250, 5-[4-[4-[5-(4-methoxy-3-methyl-phenyl)-4-methyl-1H-imidazol-2-yl]-4-methyl-1-piperidyl]-7H-pyrrolo[2,3-d]pyrimidin-6-yl]pyridine-2-carbonitrile]	0.0001 to 1
CCOc1ccc(-c2[nH]c(C3(C)CCN(c4ncnc5[nH]c(-c6ccc(C#N)nc6)cc45)CC3)nc2C)cc1 [P-3251, 5-[4-[4-[5-(4-ethoxyphenyl)-4-methyl-1H-imidazol-2-yl]-4-methyl-1-piperidyl]-7H-pyrrolo[2,3-d]pyrimidin-6-yl]pyridine-2-carbonitrile]	0.0001 to 1
Cc1nc(C2(C)CCN(c3ncnc4[nH]c(-c5ccc(NS(C)(=O)=O)cc5)cc34)CC2)[nH]c1-c1ccc(C(F)F)cc1 [P-3252, N-[4-[4-[4-[5-[4-(difluoromethyl)phenyl]-4-methyl-1H-imidazol-2-yl]-4-methyl-1-piperidyl]-7H-pyrrolo[2,3-d]pyrimidin-6-yl]phenyl]methanesulfonamide]	0.0001 to 1
Cc1nc(C2(C)CCN(c3ncnc4[nH]c(-c5ccc(C(N)=O)cc5)cc34)CC2)[nH]c1-c1ccc(OC(F)F)cc1 [P-3253, 4-[4-[4-[5-[4-(difluoromethoxy)phenyl]-4-methyl-1H-imidazol-2-yl]-4-methyl-1-piperidyl]-7H-pyrrolo[2,3-d]pyrimidin-6-yl]benzamide]	0.0001 to 1
Cc1nc(C2(C)CCN(c3ncnc4[nH]c(-c5ccc(NS(C)(=O)=O)cc5)cc34)CC2)[nH]c1-c1ccc(OC(F)F)cc1 [P-3254, N-[4-[4-[4-[5-[4-(difluoromethoxy)phenyl]-4-methyl-1H-imidazol-2-yl]-4-methyl-1-piperidyl]-7H-pyrrolo[2,3-d]pyrimidin-6-yl]phenyl]methanesulfonamide]	0.0001 to 1
Cc1nc(C2(C)CCN(c3ncnc4[nH]c(-c5ccc(C#N)nc5)cc34)CC2)[nH]c1-c1cccc(OC(F)F)c1 [P-3255, 5-[4-[4-[5-[3-(difluoromethoxy)phenyl]-4-methyl-1H-imidazol-2-yl]-4-methyl-1-piperidyl]-7H-pyrrolo[2,3-d]pyrimidin-6-yl]pyridine-2-carbonitrile]	1 to 10
COc1cccc(-c2[nH]c(C3(C)CCN(c4ncnc5[nH]c(-c6ccc(C#N)nc6)cc45)CC3)nc2C)c1 [P-3256, 5-[4-[4-[5-(3-methoxyphenyl)-4-methyl-1H-imidazol-2-yl]-4-methyl-1-piperidyl]-7H-pyrrolo[2,3-d]pyrimidin-6-yl]pyridine-2-carbonitrile]	0.0001 to 1
